The supplement of paper PMC5908809

Legend:
[1] = system: normal NK cells expanded with K562-aAPC; assay: percent inhibition of viability; higher = more inhibition; conditions: 72 h, IL-2 2.5 ng/mL
Protocol: (§1)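 Drug sensitivity and resistance testing on K562-aAPC-expanded normal NK cells: 5 concentrations (10-fold steps over a 10,000-fold range), 72 h at 37 °C, viability by CellTiter-Glo normalised to DMSO and benzethonium chloride controls; DSS from the fitted curve.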

[2] = system: DERL-7 (IL-2 2.5 ng/mL); assay: as above; conditions: 72 h
[3] = system: IMC-1 (IL-2 20 ng/mL); assay: as above; conditions: 72 h
[4] = system: KAI3 (IL-2 2.5 ng/mL); assay: as above; conditions: 72 h
[5] = system: KHYG-1 (IL-2 2.5 ng/mL); assay: as above; conditions: 72 h
[6] = system: NK-92 (IL-2 2.5 ng/mL); assay: as above; conditions: 72 h
[7] = system: NK-YS (IL-2 2.5 ng/mL); assay: as above; conditions: 72 h
[8] = system: NKL (IL-2 2.5 ng/mL); assay: as above; conditions: 72 h
[9] = system: SNK-6 (IL-2 2.5 ng/mL); assay: as above; conditions: 72 h
[10] = system: YT (IL-2 2.5 ng/mL); assay: as above; conditions: 72 h
[11] = system: normal primary NK cells, pool 1 (3 donors) (IL-2 2.5 ng/mL); assay: as above; conditions: 72 h
[12] = system: normal primary NK cells, pool 1 (3 donors), resting (IL-2 0 ng/mL); assay: as above; conditions: 72 h
[13] = system: normal primary NK cells, pool 2 (3 donors) (IL-2 2.5 ng/mL); assay: as above; conditions: 72 h
[14] = system: normal primary NK cells, pool 3 (3 donors) (IL-2 2.5 ng/mL); assay: as above; conditions: 72 h
[15] = system: normal NK cells expanded with K562-aAPC; assay: drug sensitivity score (DSS) (DSS units); higher = more sensitive; extreme values may be limits of the assay; conditions: 72 h; IL-2 2.5 ng/mL
Protocol: as §1

[16] = system: DERL-7 (IL-2 2.5 ng/mL); assay: as above; conditions: 72 h
[17] = system: IMC-1 (IL-2 20 ng/mL); assay: as above; conditions: 72 h
[18] = system: KAI3 (IL-2 2.5 ng/mL); assay: as above; conditions: 72 h
[19] = system: KHYG-1 (IL-2 2.5 ng/mL); assay: as above; conditions: 72 h
[20] = system: NK-92 (IL-2 2.5 ng/mL); assay: as above; conditions: 72 h
[21] = system: NK-YS (IL-2 2.5 ng/mL); assay: as above; conditions: 72 h
[22] = system: NKL (IL-2 2.5 ng/mL); assay: as above; conditions: 72 h
[23] = system: SNK-6 (IL-2 2.5 ng/mL); assay: as above; conditions: 72 h
[24] = system: YT (IL-2 2.5 ng/mL); assay: as above; conditions: 72 h
[25] = system: normal primary NK cells, pool 1 (3 donors) (IL-2 2.5 ng/mL); assay: as above; conditions: 72 h
[26] = system: normal primary NK cells, pool 1 (3 donors), resting (IL-2 0 ng/mL); assay: as above; conditions: 72 h
[27] = system: normal primary NK cells, pool 2 (3 donors) (IL-2 2.5 ng/mL); assay: as above; conditions: 72 h
[28] = system: normal primary NK cells, pool 3 (3 donors) (IL-2 2.5 ng/mL); assay: as above; conditions: 72 h

CC(C)c1c(C(=O)Nc2ccccc2)c(-c2ccccc2)c(-c2ccc(F)cc2)n1CC[C@@H](O)C[C@@H](O)CC(=O)O [Atorvastatin] (max concentration tested 10000 nM)
percent inhibition of viability [%]
Conditions	1 nM	10 nM	100 nM	1000 nM	10000 nM
[1]	-5.69	-0.26	-0.77	-4.84	28.3
[2]	-2.58	-0.16	-3.51	6.56	54.2
[3]	-2.01	0.19	4.44	25.6	99.2
[4]	-7.62	-6.46	-2.5	3.32	63.8
[5]	1.48	-0.11	9.42	7.71	81.3
[6]	-10.9	-15.5	4.4	-6.37	58.2
[7]	0.24	1.58	11.9	64.8	103
[8]	-16	-12.1	14.8	83.8	102
[9]	-3.12	4.06	1.93	0.27	41.9
[10]	0.23	1.11	4.51	22.4	99.1
[11]	-3.15	-14.1	-7.04	-6.72	27.1
[12]	-1.6	-6.76	-4.51	2.54	45.6
[13]	-7.16	-1.31	1.87	-2.86	29.2
[14]	-6.89	-6.08	-9.88	-12.8	4.72

Conditions	drug sensitivity score
[15]	0.92
[16]	4
[17]	9.38
[18]	3.95
[19]	5.76
[20]	2.7
[21]	14
[22]	17.2
[23]	2.14
[24]	9
[25]	0.79
[26]	2.71
[27]	1.06
[28]	0

CC(=O)OC[C@H]1O[C@@H]([S-])[C@H](OC(C)=O)[C@@H](OC(C)=O)[C@@H]1OC(C)=O.CCP(CC)CC.[Au+] [Auranofin] (max concentration tested 2500 nM)
percent inhibition of viability [%]
Conditions	0.25 nM	2.5 nM	25 nM	250 nM	2500 nM
[1]	1.15	-1.41	-0.3	33.5	100
[2]	-0.63	7.06	8.16	44.6	98.2
[3]	-3.33	-1.53	4.17	1.71	99.3
[4]	-6.77	-2.1	-2.36	-3.59	71.4
[5]	0.4	-2.1	1.71	13.8	104
[6]	-2.57	-12.2	-2.23	-0.04	98.4
[7]	-7.49	-6.18	-3.6	9.95	84.9
[8]	-10.3	-9.31	-24.6	52.6	106
[9]	13.5	17.1	4.84	33.2	86
[10]	-4.83	-3.66	0.33	-3.85	101
[11]	-6.81	-8.13	21.6	92.8	100
[12]	5.52	-6.64	48.2	92.5	99.7
[13]	-13.4	-6.97	8.16	82.7	101
[14]	-4.42	1.03	18.4	81.8	101

Conditions	drug sensitivity score
[15]	10.2
[16]	10.6
[17]	5.76
[18]	3.64
[19]	7.93
[20]	5.5
[21]	6.36
[22]	11.9
[23]	8.77
[24]	5.39
[25]	19.7
[26]	23.7
[27]	16.3
[28]	17.4

CNC(=O)c1ccccc1Sc1ccc2c(/C=C/c3ccccn3)n[nH]c2c1 [Axitinib] (max concentration tested 10000 nM)
percent inhibition of viability [%]
Conditions	1 nM	10 nM	100 nM	1000 nM	10000 nM
[1]	-1.18	-2.54	-3.5	11.1	58.7
[2]	-3.47	7.74	27	64.5	94
[3]	-1.86	-0.66	0.71	4.7	89.3
[4]	2.52	-0.91	10.2	47.2	82
[5]	-2.88	-3.36	4.43	49.4	93.1
[6]	-13.6	-7.2	-14	24.3	90.7
[7]	-3.68	-2.56	3.21	38.7	85
[8]	-1.55	-1.93	18.9	32.5	69.6
[9]	-4.55	-16.4	-11.7	55.8	78.6
[10]	-2.15	-4.48	1.03	33	85
[11]	-5.69	14.3	5.75	13.8	44.6
[12]	-14.3	9	2.7	0.6	42.6
[13]	-13.7	4.14	6.01	-6.27	42.8
[14]	-8.62	6.8	13	1.12	23

Conditions	drug sensitivity score
[15]	5.02
[16]	15.7
[17]	5.63
[18]	10.5
[19]	11
[20]	8.68
[21]	9.35
[22]	8.51
[23]	10.8
[24]	9.19
[25]	3.89
[26]	2.23
[27]	1.77
[28]	0.95

Nc1nc(Nc2ccc3c(c2)CC[C@@H](N2CCCC2)CC3)nn1-c1cc2c(nn1)-c1ccccc1CCC2 [BGB324] (max concentration tested 10000 nM)
percent inhibition of viability [%]
Conditions	1 nM	10 nM	100 nM	1000 nM	10000 nM
[1]	-3.36	-11.5	-1.93	21.5	99.9
[2]	1.87	-0.37	13.9	68	101
[3]	-1.43	-0.15	0.68	-4.19	99.9
[4]	-3.31	-2.86	2.2	43.9	101
[5]	-2.69	-1.76	3.04	59	103
[6]	-4.37	-8.81	-0.92	49	102
[7]	-2.01	-2.03	0.13	14.3	101
[8]	6.99	-6.74	6.47	73.7	102
[9]	12.8	12.3	-18.1	34.5	99.7
[10]	-0.88	-5.6	-1.23	11	101
[11]	-3.33	-4.6	-5.97	66.2	99.8
[12]	7.14	3.63	5.02	83.6	99.8
[13]	-7.98	-0.57	-5.73	45.8	100
[14]	-9.08	-10.5	-10.5	23.1	99.8

Conditions	drug sensitivity score
[15]	8.94
[16]	14.7
[17]	5.23
[18]	11.2
[19]	12.5
[20]	11.6
[21]	7.94
[22]	14.8
[23]	10.3
[24]	7.38
[25]	13.2
[26]	16
[27]	11.3
[28]	9.12

Cn1c(CCCC(=O)O)nc2cc(N(CCCl)CCCl)ccc21 [Bendamustine] (max concentration tested 10000 nM)
percent inhibition of viability [%]
Conditions	1 nM	10 nM	100 nM	1000 nM	10000 nM
[1]	3.13	1.48	-1.08	12.2	42.8
[2]	2.35	-0.75	-0.87	-0.14	8.22
[3]	-5.16	-3.14	0.53	1.92	25.3
[4]	-0.41	1.91	1.35	-4.7	30.8
[5]	-5.91	1.42	10.1	2.21	17.1
[6]	-10.3	-2.08	7.9	-10.7	24.9
[7]	-10.9	-2.18	8.61	4.45	63.6
[8]	-5.33	-10.8	5.76	27.8	88.6
[9]	-1.78	-2.24	14.2	17.1	67
[10]	-6.57	-3.19	7.12	-0.08	0
[11]	-9.6	-0.97	-3.62	-12.8	60.6
[12]	-1.75	6.06	-6.12	-12.6	88.2
[13]	-6.1	-4.8	1.7	1.54	54.5
[14]	-2.58	1.8	5.19	5.5	54.3

Conditions	drug sensitivity score
[15]	4.02
[16]	0
[17]	1.24
[18]	1.09
[19]	0.29
[20]	0.59
[21]	4.15
[22]	8.66
[23]	5.85
[24]	0
[25]	2.59
[26]	4.14
[27]	3.11
[28]	3.81
